Data as given in patent US6365620B2, “Trifluoromethylpyrrolcarboxamides” (Syngenta Crop Protection, Inc., priority 1998, dated 2002).

melting point: 100 to 102 °C
Compound: Cn1cc(C(=O)Nc2ccccc2-c2ccccc2)c(C(F)(F)F)c1 [Compound 1.01, N-(2-biphenylyl)-1-methyl-4-trifluoromethylpyrrol-3-carboxamide]
